Source: US6525001B1, “Substituted pyrimidine and pyridine herbicides” (Mid-American Commercialization Corporation, priority 1997, dated 2003)

What was measured:
Format in all cases: in vivo
Design in all cases: key: 0 is no effect; 10 is complete control
[1] = tested on: bedstraw (Galium aparine); experiment: Test B pre-/postemergence; conditions: for Bedstraw plant response rating: Preemergence
Outline: (§1)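 Seeds were planted and sprayed preemergence, while plants at 2 to 18 cm (1- to 4-leaf stage) were sprayed postemergence at the same time, with test chemical in a non-phytotoxic solvent mixture containing surfactant. After twelve to sixteen days in a greenhouse, injury was rated visually against untreated controls on a 0–10 scale.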

[2] = tested on: blackgrass (Alopecurus myosuroides); experiment: Test B pre-/postemergence; conditions: for Blackgrass plant response rating: Preemergence
Outline: as §1

[3] = tested on: broadleaf signalgrass (Brachiaria decumbens); experiment: Test B pre-/postemergence; conditions: for B. signalgrass plant response rating: Preemergence
Outline: as §1

[4] = tested on: cocklebur (Xanthium strumarium); experiment: Test B pre-/postemergence; conditions: for Cocklebur plant response rating: Preemergence
Outline: as §1

corn (Zea mays) = experiment: Test B pre-/postemergence; conditions: for Corn plant response rating: Preemergence
Outline: as §1

[5] = tested on: crabgrass (Digitaria sanguinalis); experiment: Test B pre-/postemergence; conditions: for Crabgrass plant response rating: Preemergence
Outline: as §1

[6] = tested on: giant foxtail (Setaria faberii); experiment: Test B pre-/postemergence
Outline: as §1

[7] = tested on: momingglory (Ipomoea hederacea); experiment: Test B pre-/postemergence
Outline: as §1

[8] = tested on: pigweed (Amaranthus retroflexus); experiment: Test B pre-/postemergence
Outline: as §1

[9] = tested on: purple nutsedge (Cyperus rotundus); experiment: Test B pre-/postemergence
Outline: as §1

rape (Brassica napus) = experiment: Test B pre-/postemergence
Outline: as §1

soybean (Glycine max) = experiment: Test B pre-/postemergence
Outline: as §1

[10] = tested on: sugar beet (Beta vulgaris); experiment: Test B pre-/postemergence
Outline: as §1

[11] = tested on: velvetleaf (Abutilon theophrasti); experiment: Test B pre-/postemergence
Outline: as §1

[12] = tested on: wheat (Triticum aestivum); experiment: Test B pre-/postemergence
Outline: as §1

wild oat (Avena fatua) = experiment: Test B pre-/postemergence
Outline: as §1

[13] = tested on: bamyardgrass (Echinochloa crus-galli); experiment: Test B flood test
Outline: (§2)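 Plants were grown to the 2-leaf stage before treatment with test chemical, then held in a greenhouse for twelve to sixteen days. Injury was visually rated against untreated controls on a 0–10 scale, where 0 is no effect and 10 is complete control.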

[14] = tested on: duck salad (Heteranthera limosa); experiment: Test B flood test
Outline: as §2

rice (Oryza sativa) = experiment: Test B flood test
Outline: as §2

[15] = tested on: smallflower flatsedge (Cyperus difformis); experiment: Test B flood test
Outline: as §2

[16] = Rate 250 g/ha, Postemergence (so in the source)
[17] = Rate 62 g/ha, Postemergence (flood test)
[18] = Rate 125 g/ha, Postemergence, flood test
[19] = Rate 250 g/ha, Postemergence (flood test species)
[20] = Rate 125 g/ha, Postemergence section (flood test species)

For Cc1cnc(-c2ccc(Cl)cc2F)nc1Cc1cccc(C#N)c1 [Compound 35], the “Plant response rating, Bedstraw” value ([1]; Rate 62 g/ha, Postemergence) was 6, the “Bedstraw plant response rating” value ([1]; Rate 62 g/ha) was 0 and the “Plant response rating, Bedstraw” value ([1]; Rate 125 g/ha, Postemergence) was 6. For the same molecule, the “Bedstraw plant response rating” value ([1]; Rate 125 g/ha) was 0, the “Plant response rating, Bedstraw” value ([1]; Rate 250 g/ha, Postemergence) was 8 and the “Plant response rating, Bedstraw” value [1, 16] was 1. For the same molecule, the “Plant response rating, Blackgrass” value ([2]; Rate 62 g/ha, Postemergence) was 1, the “Blackgrass plant response rating” value ([2]; Rate 62 g/ha) was 0 and the “Plant response rating, Blackgrass” value ([2]; Rate 125 g/ha, Postemergence) was 1. The “Blackgrass plant response rating” value ([2]; Rate 125 g/ha) was 0, the “Plant response rating, Blackgrass” value ([2]; Rate 250 g/ha, Postemergence) was 1 and the “Plant response rating, Blackgrass” value [2, 16] was 0. The “Plant response rating, B. signalgrass” value ([3]; Rate 62 g/ha, Postemergence) was 1, the “B. signalgrass plant response rating” value ([3]; Rate 62 g/ha) was 0 and the “Plant response rating, B. signalgrass” value ([3]; Rate 125 g/ha, Postemergence) was 1. The “B. signalgrass plant response rating” value ([3]; Rate 125 g/ha) was 0, the “Plant response rating, B. signalgrass” value ([3]; Rate 250 g/ha, Postemergence) was 1 and the “Plant response rating, B. signalgrass” value ([3]; Rate 250 g/ha, Postemergence as printed in head r139 (second section for compounds 26-50)) was 0. For the same molecule, the “Plant response rating, Cocklebur” value ([4]; Rate 62 g/ha, Postemergence) was 2, the “Cocklebur plant response rating” value ([4]; Rate 62 g/ha) was 0 and the “Plant response rating, Cocklebur” value ([4]; Rate 125 g/ha, Postemergence) was 2. For the same molecule, the “Cocklebur plant response rating” value ([4]; Rate 125 g/ha) was 0, the “Plant response rating, Cocklebur” value ([4]; Rate 250 g/ha, Postemergence) was 2 and the “Plant response rating, Cocklebur” value [4, 16] was 0. For the same molecule, the “Plant response rating, Corn” value (corn (Zea mays); Rate 62 g/ha, Postemergence) was 1, the “Corn plant response rating” value (corn (Zea mays); Rate 62 g/ha) was 0 and the “Plant response rating, Corn” value (corn (Zea mays); Rate 125 g/ha, Postemergence) was 1. For the same molecule, the “Corn plant response rating” value (corn (Zea mays); Rate 125 g/ha) was 0, the “Plant response rating, Corn” value (corn (Zea mays); Rate 250 g/ha, Postemergence) was 1 and the “Plant response rating, Corn” value (corn (Zea mays); [16]) was 0. For the same molecule, the “Plant response rating, Crabgrass” value ([5]; Rate 62 g/ha, Postemergence) was 2, the “Crabgrass plant response rating” value ([5]; Rate 62 g/ha) was 0 and the “Plant response rating, Crabgrass” value ([5]; Rate 125 g/ha, Postemergence) was 2. The “Crabgrass plant response rating” value ([5]; Rate 125 g/ha) was 1, the “Plant response rating, Crabgrass” value ([5]; Rate 250 g/ha, Postemergence) was 2 and the “Plant response rating, Crabgrass” value [5, 16] was 1. For the same molecule, the “Plant response rating, Giant foxtail” value ([6]; Rate 62 g/ha, Postemergence) was 1, the “Giant foxtail plant response rating” value ([6]; Rate 62 g/ha, Preemergence) was 0 and the “Giant foxtail plant response rating” value ([6]; Rate 125 g/ha, Postemergence) was 1. For the same molecule, the “Giant foxtail plant response rating” value ([6]; Rate 125 g/ha, Preemergence) was 0, the “Plant response rating, Giant foxtail” value ([6]; Rate 250 g/ha, Postemergence) was 1 and the “Plant response rating, Giant foxtail” value [6, 16] was 1. The “Plant response rating, Morningglory” value ([7]; Rate 62 g/ha, Postemergence) was 1, the “Morningglory plant response rating” value ([7]; Rate 62 g/ha, Preemergence) was 0 and the “Morningglory plant response rating” value ([7]; Rate 125 g/ha, Postemergence) was 1. For the same molecule, the “Morningglory plant response rating” value ([7]; Rate 125 g/ha, Preemergence) was 0, the “Plant response rating, Morningglory” value ([7]; Rate 250 g/ha, Postemergence) was 1 and the “Plant response rating, Morningglory” value [7, 16] was 0. The “Plant response rating, Redroot pigweed” value ([8]; Rate 62 g/ha, Postemergence) was 3, the “Redroot pigweed plant response rating” value ([8]; Rate 62 g/ha, Preemergence) was 0 and the “Redroot pigweed plant response rating” value ([8]; Rate 125 g/ha, Postemergence) was 3. For the same molecule, the “Redroot pigweed plant response rating” value ([8]; Rate 125 g/ha, Preemergence) was 0, the “Plant response rating, Redroot pigweed” value ([8]; Rate 250 g/ha, Postemergence) was 5 and the “Plant response rating, Redroot pigweed” value [8, 16] was 5. For the same molecule, the “Plant response rating, Nutsedge” value ([9]; Rate 62 g/ha, Postemergence) was 0, the “Nutsedge plant response rating” value ([9]; Rate 62 g/ha, Preemergence) was 0 and the “Nutsedge plant response rating” value ([9]; Rate 125 g/ha, Postemergence) was 0. For the same molecule, the “Nutsedge plant response rating” value ([9]; Rate 125 g/ha, Preemergence) was 0, the “Plant response rating, Nutsedge” value ([9]; Rate 250 g/ha, Postemergence) was 0 and the “Plant response rating, Nutsedge” value [9, 16] was 0. The “Plant response rating, Rape” value (rape (Brassica napus); Rate 62 g/ha, Postemergence) was 6, the “Rape plant response rating” value (rape (Brassica napus); Rate 62 g/ha, Preemergence) was 0 and the “Rape plant response rating” value (rape (Brassica napus); Rate 125 g/ha, Postemergence) was 6. The “Rape plant response rating” value (rape (Brassica napus); Rate 125 g/ha, Preemergence) was 0, the “Plant response rating, Rape” value (rape (Brassica napus); Rate 250 g/ha, Postemergence) was 9 and the “Plant response rating, Rape” value (rape (Brassica napus); [16]) was 0. For the same molecule, the “Plant response rating, Soybean” value (soybean (Glycine max); Rate 62 g/ha, Postemergence) was 1, the “Soybean plant response rating” value (soybean (Glycine max); Rate 62 g/ha, Preemergence) was 0 and the “Soybean plant response rating” value (soybean (Glycine max); Rate 125 g/ha, Postemergence) was 2. For the same molecule, the “Plant response rating, Soybean” value (soybean (Glycine max); Rate 125 g/ha, Preemergence) was 0, the “Plant response rating, Soybean” value (soybean (Glycine max); Rate 250 g/ha, Postemergence) was 2 and the “Plant response rating, Soybean” value (soybean (Glycine max); [16]) was 0. For the same molecule, the “Plant response rating, Sugarbeets” value ([10]; Rate 62 g/ha, Postemergence) was 9, the “Sugarbeets plant response rating” value ([10]; Rate 62 g/ha, Preemergence) was 0 and the “Sugarbeets plant response rating” value ([10]; Rate 125 g/ha, Postemergence) was 10. The “Plant response rating, Sugarbeets” value ([10]; Rate 125 g/ha, Preemergence) was 0, the “Plant response rating, Sugarbeets” value ([10]; Rate 250 g/ha, Postemergence) was 10 and the “Plant response rating, Sugarbeets” value [10, 16] was 1. For the same molecule, the “Plant response rating, Velvetleaf” value ([11]; Rate 62 g/ha, Postemergence) was 1, the “Velvetleaf plant response rating” value ([11]; Rate 62 g/ha, Preemergence) was 0 and the “Velvetleaf plant response rating” value ([11]; Rate 125 g/ha, Postemergence) was 1. The “Plant response rating, Velvetleaf” value ([11]; Rate 125 g/ha, Preemergence) was 0, the “Plant response rating, Velvetleaf” value ([11]; Rate 250 g/ha, Postemergence) was 1 and the “Plant response rating, Velvetleaf” value [11, 16] was 1. The “Wheat plant response rating” value ([12]; Rate 62 g/ha, Postemergence) was 0, the “Wheat plant response rating” value ([12]; Rate 62 g/ha, Preemergence) was 0 and the “Wheat plant response rating” value ([12]; Rate 125 g/ha, Postemergence) was 0. For the same molecule, the “Plant response rating, Wheat” value ([12]; Rate 125 g/ha, Preemergence) was 0, the “Plant response rating, Wheat” value ([12]; Rate 250 g/ha, Postemergence) was 1 and the “Plant response rating, Wheat” value [12, 16] was 0. For the same molecule, the “Wild oats plant response rating” value (wild oat (Avena fatua); Rate 62 g/ha, Postemergence) was 1, the “Wild oats plant response rating” value (wild oat (Avena fatua); Rate 62 g/ha, Preemergence) was 0 and the “Wild oats plant response rating” value (wild oat (Avena fatua); Rate 125 g/ha, Postemergence) was 1. For the same molecule, the “Plant response rating, Wild oats” value (wild oat (Avena fatua); Rate 125 g/ha, Preemergence) was 0, the “Plant response rating, Wild oats” value (wild oat (Avena fatua); Rate 250 g/ha, Postemergence) was 2 and the “Plant response rating, Wild oats” value (wild oat (Avena fatua); [16]) was 1. The “Plant response rating, Barnyardgrass” value [13, 17] was 0, the “Plant response rating, Barnyardgrass” value [13, 18] was 2 and the “Plant response rating, Barnyardgrass” value [13, 19] was 2. The “Plant response rating, Ducksalad” value [14, 17] was 0, the “Plant response rating, Ducksalad” value [14, 18] was 0 and the “Plant response rating, Ducksalad” value [14, 19] was 1. The “Plant response rating, Rice” value (rice (Oryza sativa); [17]) was 0, the “Rice plant response rating” value (rice (Oryza sativa); [20]) was 1 and the “Plant response rating, Rice” value (rice (Oryza sativa); [19]) was 1. The “Plant response rating, S. Flatsedge” value [15, 17] was 1, the “S. Flatsedge plant response rating” value [15, 20] was 2 and the “Plant response rating, S. Flatsedge” value [15, 19] was 2.
